# In patent publication US20240254118A1, “PRMT5 INHIBITORS AND USES THEREOF” (Gilead Sciences, Inc., priority 2022, published 2024):
# Tests used:
# [1] = test system: HCT116 MTAP-deleted cells; assay: Cell viability assay (CellTiter-Glo, 7 days), HCT116 MTAP-deleted; conditions: Homo sapiens, HCT-116, 168 h
# [2] = test system: SDMA signal (PRMT5 inhibition) in HCT116 MTAP-deleted cells; assay: Symmetric di-methyl arginine image-based high content screen assay (SDMA assay), HCT116 MTAP-deleted; type: cell-based; conditions: SDMA assay; for EC50: Homo sapiens, HCT-116, 72 h, 3 days of treatment, cell line not given, taken as HCT116 MTAP-deleted, read-out: EC50 (SDMA assay); for EC50 selectivity (SDMA assay): taken as HCT116 WT versus MTAP-deleted
# Summary of the method: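 Read-out: per-cell mean SDMA immunofluorescence (Alexa Fluor 488 secondary), cells segmented by DAPI on a high-content imager. Compound exposure in HCT116 MTAP-deleted cells lasted until fixation on Day 3; overnight 4° C primary anti-SDMA antibody staining.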
Structure (SMILES),CC50 [1],EC50 [2],EC50 selectivity (SDMA assay) [2]
"CC(=O)N(C)N(Cc1ccc(C(F)(F)F)nn1)C(=O)c1ccc2nc(N)c3cnn(C)c3c2c1 [Example 61, N′-acetyl-4-amino-N′,1-dimethyl-N-((6-(trifluoromethyl)pyridazin-3-yl)methyl)-1H-pyrazolo[4,3-c]quinoline-8-carbohydrazide]",100 to 1000 nM,1 to 5 nM,124
"Cn1ncc2c(N)nc3ccc(C(=O)N(Cc4ccc(C(F)(F)F)cn4)N4CCOCC4=O)cc3c21 [Example 62, 4-amino-1-methyl-N-(3-oxomorpholin-4-yl)-N-[[5-(trifluoromethyl)-2-pyridyl]methyl]pyrazolo[4,3-c]quinoline-8-carboxamide]",< 100 nM,< 1 nM,94
"Cn1ncc2c(N)nc3cc(Cl)c(C(=O)N(Cc4ccc(C(F)(F)F)cn4)N4CCOCC4=O)cc3c21 [Example 63, 4-amino-7-chloro-1-methyl-N-(3-oxomorpholin-4-yl)-N-[[5-(trifluoromethyl)-2-pyridyl]methyl]pyrazolo[4,3-c]quinoline-8-carboxamide]",< 100 nM,1 to 5 nM,70
"Cn1ncc2c(N)nc3ccc(C(=O)N(Cc4c(F)cc(C(F)(F)F)cc4F)N4CCCCC4=O)cc3c21 [Example 64, 4-amino-N-[[2,6-difluoro-4-(trifluoromethyl)phenyl]methyl]-1-methyl-N-(2-oxo-1-piperidyl)pyrazolo[4,3-c]quinoline-8-carboxamide]",< 100 nM,< 1 nM,15
"Cn1ncc2c(N)nc3ccc(C(=O)N(Cc4nc5ccccc5s4)N4CCCC4=O)cc3c21 [Example 65, 4-amino-N-(1,3-benzothiazol-2-ylmethyl)-1-methyl-N-(2-oxopyrrolidin-1-yl)pyrazolo[4,3-c]quinoline-8-carboxamide]",< 100 nM,< 1 nM,149
"Cn1ncc2c(N)nc3ccc(C(=O)N(Cc4ccc(C(C)(C)O)nc4)N4CCCCC4=O)cc3c21 [Example 66, 4-amino-N-[[6-(1-hydroxy-1-methyl-ethyl)-3-pyridyl]methyl]-1-methyl-N-(2-oxo-1-piperidyl)pyrazolo[4,3-c]quinoline-8-carboxamide]",100 to 1000 nM,> 5 nM,281
"COc1cc(C(F)(F)F)ccc1CN(C(=O)c1ccc2nc(N)c3cnn(C)c3c2c1)N1CCCCC1=O [Example 67, 4-amino-N-[[2-methoxy-4-(trifluoromethyl)phenyl]methyl]-1-methyl-N-(2-oxo-1-piperidyl)pyrazolo[4,3-c]quinoline-8-carboxamide]",< 100 nM,< 1 nM,25
"CC(=O)N(C)N(Cc1ccc(C(F)(F)F)cn1)C(=O)c1ccc2nc(N)c3ccccc3c2c1 [Example 68, N′-acetyl-6-amino-N′-methyl-N-[[5-(trifluoromethyl)-2-pyridyl]methyl]phenanthridine-2-carbohydrazide]",100 to 1000 nM,1 to 5 nM,304
"CC(=O)N(C)N(Cc1ccc(C(F)(F)F)cn1)C(=O)c1ccc2nc(N)c3sncc3c2c1 [Example 69, N′-acetyl-4-amino-N′-methyl-N-[[5-(trifluoromethyl)-2-pyridyl]methyl]isothiazolo[5,4-c]quinoline-8-carbohydrazide]",100 to 1000 nM,1 to 5 nM,142
"CC(=O)N(C)N(Cc1ccc(C(F)(F)F)cn1)C(=O)c1cc2c3c(c(N)nc2cc1F)COC3 [Example 70, N′-acetyl-4-amino-7-fluoro-N′-methyl-N-[[5-(trifluoromethyl)-2-pyridyl]methyl]-1,3-dihydrofuro[3,4-c]quinoline-8-carbohydrazide]",< 100 nM,1 to 5 nM,11
"CC(=O)N(C)N(Cc1ccc(C(F)(F)F)cn1)C(=O)c1ccc2nc(N)c3c(c2c1)CO[C@@H]3C [Example 71, (3R)—N′-acetyl-4-amino-N′,3-dimethyl-N-[[5-(trifluoromethyl)-2-pyridyl]methyl]-1,3-dihydrofuro[3,4-c]quinoline-8-carbohydrazide]",< 100 nM,1 to 5 nM,59
"CC(=O)N(C)N(Cc1ccc(C(F)(F)F)cn1)C(=O)c1ccc2nc(N)c3cnccc3c2c1 [Example 72, N′-acetyl-5-amino-N′-methyl-N-((5-(trifluoromethyl)pyridin-2-yl)methyl)benzo[c][2,7]naphthyridine-9-carbohydrazide]",100 to 1000 nM,1 to 5 nM,142
"CN(C)N(Cc1ccc(C(F)(F)F)cn1)C(=O)c1ccc2nc(N)c3cscc3c2c1 [Example 73, 4-amino-N′,N′-dimethyl-N-((5-(trifluoromethyl)pyridin-2-yl)methyl)thieno[3,4-c]quinoline-8-carbohydrazide]",100 to 1000 nM,> 5 nM,39
"CC(c1ccc(C(F)(F)F)cn1)N(C(=O)c1ccc2nc(N)c3cscc3c2c1)N(C)C (stereo not drawn) [Example 74, 4-amino-N′,N′-dimethyl-N-(1-(5-(trifluoromethyl)pyridin-2-yl)ethyl)thieno[3,4-c]quinoline-8-carbohydrazide]",100 to 1000 nM,> 5 nM,>71
"CN(C1CC1)N(Cc1ccc(C(F)(F)F)cn1)C(=O)c1ccc2nc(N)c3cnn(C)c3c2c1 [Example 75, 4-amino-N′-cyclopropyl-N′,1-dimethyl-N-((5-(trifluoromethyl)pyridin-2-yl)methyl)-1H-pyrazolo[4,3-c]quinoline-8-carbohydrazide]",< 100 nM,< 1 nM,68
"Nc1nc2ccc(C(=O)N(Cc3ccc(C(F)(F)F)cn3)Nc3ncccn3)cc2c2ccccc12 [Example 76, 6-amino-N′-(pyrimidin-2-yl)-N-((5-(trifluoromethyl)pyridin-2-yl)methyl)phenanthridine-2-carbohydrazide]",100 to 1000 nM,1 to 5 nM,204
"CC(=O)N(C)N(Cc1ccc(OC(F)F)cc1F)C(=O)c1ccc2nc(N)c3cnn(C)c3c2c1 [Example 77, N′-acetyl-4-amino-N-(4-(difluoromethoxy)-2-fluorobenzyl)-N′,1-dimethyl-1H-pyrazolo[4,3-c]quinoline-8-carbohydrazide]",< 100 nM,< 1 nM,69
"Cn1ncc2c(N)nc3cc(F)c(C(=O)N(Cc4ccc(OC(F)F)cc4F)N4CCCC4=O)cc3c21 [Example 78, 4-amino-N-(4-(difluoromethoxy)-2-fluorobenzyl)-7-fluoro-1-methyl-N-(2-oxopyrrolidin-1-yl)-1H-pyrazolo[4,3-c]quinoline-8-carboxamide]",< 100 nM,< 1 nM,19
"Cn1c(CN(C(=O)c2ccc3nc(N)c4ccccc4c3c2)N2CCCC2=O)nc2ccccc21 [Example 79, 6-Amino-N-[(1-methylbenzimidazol-2-yl)methyl]-N-(2-oxopyrrolidin-1-yl) phenanthridine-2-carboxamide]",100 to 1000 nM,1 to 5 nM,406
"Cn1ncc2c(N)nc3ccc(C(=O)N(Cc4nc5ccccc5n4C)N4CCCC4=O)cc3c21 [Example 80, 4-Amino-1-methyl-N-[(1-methylbenzimidazol-2-yl)methyl]-N-(2-oxopyrrolidin-1-yl)pyrazolo[4,3-c]quinoline-8-carboxamide]",< 100 nM,< 1 nM,164
"Cn1c(CN(C(=O)c2ccc3nc(N)c4c(c3c2)COC4)N2CCCC2=O)nc2ccccc21 [Example 81, 4-Amino-N-[(1-methylbenzimidazol-2-yl)methyl]-N-(2-oxopyrrolidin-1-yl)-1,3-dihydrofuro[3,4-c]quinoline-8-carboxamide]",< 100 nM,1 to 5 nM,101
"CCn1c(CN(C(=O)c2ccc3nc(N)c4cnn(C)c4c3c2)N2CCCC2=O)nc2ccccc21 [Example 83, 4-Amino-N-[(1-ethylbenzimidazol-2-yl)methyl]-1-methyl-N-(2-oxopyrrolidin-1-yl)pyrazolo[4,3-c]quinoline-8-carboxamide]",100 to 1000 nM,1 to 5 nM,242
"CN1CCN(N(Cc2ccc(C(F)(F)F)cn2)C(=O)c2cc3c(cc2Cl)nc(N)c2cnn(C)c23)C1=O [Example 84, 4-Amino-7-chloro-1-methyl-N-(3-methyl-2-oxo-imidazolidin-1-yl)-N-[[5-(trifluoromethyl)-2-pyridyl]methyl]pyrazolo[4,3-c]quinoline-8-carboxamide]",< 100 nM,1 to 5 nM,26
"Cn1ncc2c(N)nc3ccc(C(=O)N(Cc4nc5ccc(F)cc5s4)N4CCCC4=O)cc3c21 [Example 85, 4-Amino-N-[(6-fluoro-1,3-benzothiazol-2-yl)methyl]-1-methyl-N-(2-oxopyrrolidin-1-yl)pyrazolo[4,3-c]quinoline-8-carboxamide]",< 100 nM,< 1 nM,48
"CC(=O)N(C)N(Cc1nc2ccc(F)cc2s1)C(=O)c1ccc2nc(N)c3cnn(C)c3c2c1 [Example 86, N′-Acetyl-4-amino-N-[(6-fluoro-1,3-benzothiazol-2-yl)methyl]-N′, 1-dimethyl-pyrazolo[4,3-c]quinoline-8-carbohydrazide]",< 100 nM,< 1 nM,92
